Here are results for eight molecules from patent publication US11866414B2, “Substituted heterocyclic compounds” (BRISTOL-MYERS SQUIBB COMPANY, priority 2021, dated 2024).

By IC50 is commonly meant the concentration that gives 50% inhibition. For orientation: Papp A→B means how fast a substance crosses the layer from the apical side. The low end stands for slow passage, the high end for fast passage. As a reminder, the efflux ratio is the permeability from basolateral to apical divided by that in the opposite direction, in the common usage.

Data set [1] concerns IFNα-induced STAT phosphorylation (pSTAT5). In words: IFNα-induced STAT phosphorylation in human whole blood. It counts as cell-based. The conditions noted are these: 1 h compound, 1000 U/mL IFNα A/D 15 min, CD3 positive population, read-out: Human Whole blood IFNa pSTAT5 IC50. How it is done: IFNα-Induced STAT Phosphorylation in Human Whole Blood
After an hour long incubation with compound, human whole blood (drawn with ACD-A as anticoagulant) was stimulated with 1000 U/mL recombinant human IFNα A/D (R&D Systems 11200-2) for 15 min. The stimulation was stopped by adding Fix/Lyse buffer (BD 558049). Cells were stained with a CD3 FITC antibody (BD 555916), washed, and permeabilized on ice using Perm III buffer (BD 558050). Cells were then stained with an Alexa-Fluor 647 pSTAT5 (pY694) antibody (BD 612599) for 60 min prior to analysis on the iQue Plus. The amount of pSTAT5 expression was quantitated by median fluorescence intensity after gating on the CD3 positive population.

The next data set in a line: in vitro. The settings on record: human, Caco-2, pH 7.4.

The structures appear in SMILES notation.

In the case of `[2H]C([2H])([2H])NC(=O)c1nnc(NC(=O)C2CC2)cc1Nc1cccc(-c2nn(C)nc2C)c1OC` [Example 23, 6-(cyclopropane-carboxamido)-4-((3-(2,5-dimethyl-2H-1,2,3-triazol-4-yl)-2-methoxyphenyl)amino)-N-(methyl-d3)pyridazine-3-carboxamide], the IC50 in data set [1] was found to be 180 nM. In the data set “in vitro”, the apparent permeability from apical to basolateral (Papp A→B) at 2 h, 3 μM came out at 29.5 ×10⁻⁶ cm/s and the efflux ratio at 2 h, 3 μM was 1.2.

For `[2H]C([2H])([2H])NC(=O)c1nnc(Nc2ccn(C)n2)cc1Nc1cccc(-c2cnn(C)n2)c1OC` [Example 25, 4-((2-methoxy-3-(2-methyl-2H-1,2,3-triazol-4-yl)phenyl)amino)-N-(methyl-d3)-6-((1-methyl-1H-pyrazol-3-yl)amino)pyridazine-3-carboxamide], in data set [1], the 50% inhibitory concentration (IC50) is 60 nM. In “in vitro”, the apparent permeability from apical to basolateral (Papp A→B) at 2 h, 3 μM was found to be 1.9 ×10⁻⁶ cm/s and the efflux ratio at 2 h, 3 μM worked out at 1.2.

Take `[2H]C([2H])([2H])NC(=O)c1nnc(NC(=O)[C@@H]2C[C@@H]2C)cc1Nc1cccc(-c2cnn(C)n2)c1OC` [Example 26, 4-((2-methoxy-3-(2-methyl-2H-1,2,3-triazol-4-yl)phenyl)amino)-N-(methyl-d3)-6-((1R,2S)-2-methylcyclopropane-1-carboxamido)pyridazine-3-carboxamide]: the IC50 in data set [1] is 60 nM. In “in vitro”, the Papp A→B at 2 h, 3 μM amounted to 33.4 ×10⁻⁶ cm/s and the efflux ratio at 2 h, 3 μM is 0.6.

Turning to `[2H]C([2H])([2H])NC(=O)c1nnc(NC(=O)C2CC2)cc1Nc1cccc(-c2nn(C3CC3)nc2C)c1OC` [Example 27, 6-(cyclopropanecarboxamido)-4-((3-(2-cyclopropyl-5-methyl-2H-1,2,3-triazol-4-yl)-2-methoxyphenyl)amino)-N-(methyl-d3)pyridazine-3-carboxamide], the concentration for half-maximal inhibition (IC50) in data set [1] was determined as 210 nM. Also, in “in vitro”, the Papp A→B at 2 h, 3 μM was determined as 20.5 ×10⁻⁶ cm/s and the efflux ratio at 2 h, 3 μM came out at 0.8.

Regarding `[2H]C([2H])([2H])NC(=O)c1nnc(NC(=O)OCC)cc1Nc1cccc(-c2cnn(C)n2)c1OC` [Example 28, ethyl (5-((2-methoxy-3-(2-methyl-2H-1,2,3-triazol-4-yl)phenyl)amino)-6-((methyl-d3)carbamoyl)pyridazin-3-yl)carbamate], the IC50 in data set [1] came out at 370 nM. In “in vitro”, the Papp A→B at 2 h, 3 μM came to 28 ×10⁻⁶ cm/s and the efflux ratio at 2 h, 3 μM came out at 0.5.

As to `[2H]C([2H])([2H])NC(=O)c1nnc(NC(=O)[C@@H]2C[C@H]2F)cc1Nc1cccc(-c2cnn(C)n2)c1OC` [Example 29, 6-((1S,2R)-2-fluorocyclopropane-1-carboxamido)-4-((2-methoxy-3-(2-methyl-2H-1,2,3-triazol-4-yl)phenyl)amino)-N-(methyl-d3)pyridazine-3-carboxamide], the half-maximal inhibitory concentration (IC50) in data set [1] was found to be 50 nM. Further, in the data set “in vitro”, the Papp A→B at 2 h, 3 μM was found to be 37.9 ×10⁻⁶ cm/s and the efflux ratio at 2 h, 3 μM turned out to be 0.5.

As to `[2H]C([2H])([2H])NC(=O)c1nnc(NC(=O)[C@H]2C[C@H]2C)cc1Nc1cccc(-c2cnn(C)n2)c1OC` [Example 30, 4-((2-methoxy-3-(2-methyl-2H-1,2,3-triazol-4-yl)phenyl)amino)-N-(methyl-d3)-6-((1S,2R)-2-methylcyclopropane-1-carboxamido)-pyridazine-3-carboxamide], the IC50 in data set [1] came out at 60 nM. In “in vitro”, the apical-to-basolateral permeability (Papp A→B) at 2 h, 3 μM turned out to be 29.9 ×10⁻⁶ cm/s and the efflux ratio at 2 h, 3 μM was 0.7.

`[2H]C([2H])([2H])NC(=O)c1nnc(NC(=O)C2CC2(F)F)cc1Nc1cccc(-c2cnn(C)n2)c1OC` (stereo not drawn) [Example 31, 6-(2,2-difluorocyclopropane-1-carboxamido)-4-((2-methoxy-3-(2-methyl-2H-1,2,3-triazol-4-yl)phenyl)amino)-N-(methyl-d3)pyridazine-3-carboxamide]: the IC50 in data set [1] amounted to 110 nM. In addition, in the data set “in vitro”, the apparent permeability from apical to basolateral (Papp A→B) at 2 h, 3 μM turned out to be 31.3 ×10⁻⁶ cm/s and the efflux ratio at 2 h, 3 μM turned out to be 0.8.
